How the values were obtained:
sEH = molecular target: T1, sEH (Homo sapiens, UniProt P34913); assay: Cell-based sEH activity assay in HepG2 cells; set-up: endogenous in cells; host or cells: HepG2; conditions: for inhibition of sEH activity in HepG2 cells: 10 µM, 24 h
T1 sequence (P34913 1-555): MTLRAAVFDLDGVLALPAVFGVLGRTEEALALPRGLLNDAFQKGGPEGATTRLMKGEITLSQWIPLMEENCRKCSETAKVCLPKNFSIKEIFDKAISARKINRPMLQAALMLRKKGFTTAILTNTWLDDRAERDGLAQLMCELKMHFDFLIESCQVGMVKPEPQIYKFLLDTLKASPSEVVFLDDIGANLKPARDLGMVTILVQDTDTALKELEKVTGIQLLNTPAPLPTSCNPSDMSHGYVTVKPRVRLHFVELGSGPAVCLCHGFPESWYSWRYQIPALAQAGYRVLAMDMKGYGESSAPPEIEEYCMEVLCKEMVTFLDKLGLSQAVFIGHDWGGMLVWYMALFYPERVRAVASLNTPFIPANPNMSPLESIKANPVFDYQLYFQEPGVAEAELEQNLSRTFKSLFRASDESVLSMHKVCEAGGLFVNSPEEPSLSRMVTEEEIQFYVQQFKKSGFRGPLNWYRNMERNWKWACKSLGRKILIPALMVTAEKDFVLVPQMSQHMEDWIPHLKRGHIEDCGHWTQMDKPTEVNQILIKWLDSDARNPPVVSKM
Experimental: sEH activity in the cells was analyzed using a Soluble Epoxide Hydrolase Cell-Based Assay Kit (Cayman Chemical, #600090). […] Following incubation, the cells were processed according to the manufacturer’s instructions. The assay uses an internal signal subtraction to minimize potential errors generated by sEH-independent product formation due esterase mediated hydrolysis. The fluorescence intensity of the samples was measured in a plate reader at excitation/emission wavelengths of 330/465 nm sEH activity was calculated by the 6-methoxy-2-naphthaldehyde standard curve.
FIGURE 3 Effects of NFA on sEH activity. […] Data are the mean ± SEM of n = 3–7. […] The cells were lysed, and hydrolase activity was measured by Epoxy Fluor 7 lysis. […] Statistical significance was calculated by one-way ANOVA with Bonferroni post-test and multiple comparisons against the DMSO control.

COX-2 = molecular target: T2, COX-2 (Homo sapiens, UniProt P35354); assay: Recombinant COX-2 peroxidase activity assay; format: biochemical; set-up: purchased Cayman Chemicals #700100; conditions: 30 min preincubation
T2 sequence (P35354 18-604): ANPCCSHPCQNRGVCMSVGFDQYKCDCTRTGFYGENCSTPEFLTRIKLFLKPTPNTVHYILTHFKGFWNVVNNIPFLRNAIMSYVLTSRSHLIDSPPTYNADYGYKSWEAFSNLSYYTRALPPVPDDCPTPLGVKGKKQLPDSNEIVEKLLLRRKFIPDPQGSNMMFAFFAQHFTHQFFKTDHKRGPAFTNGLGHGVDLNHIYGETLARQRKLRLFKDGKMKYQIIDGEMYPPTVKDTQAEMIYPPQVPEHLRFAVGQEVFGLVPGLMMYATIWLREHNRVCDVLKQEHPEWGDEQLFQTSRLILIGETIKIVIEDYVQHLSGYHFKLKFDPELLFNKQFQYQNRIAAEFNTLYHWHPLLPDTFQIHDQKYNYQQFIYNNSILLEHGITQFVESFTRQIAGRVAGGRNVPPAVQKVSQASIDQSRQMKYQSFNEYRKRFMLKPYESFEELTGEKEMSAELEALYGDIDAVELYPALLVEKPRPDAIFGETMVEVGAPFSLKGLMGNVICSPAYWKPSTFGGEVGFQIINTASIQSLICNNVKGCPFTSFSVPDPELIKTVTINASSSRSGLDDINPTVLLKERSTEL
Experimental: The effects of NFA on COX-2 activity were analyzed using a recombinant COX-2 activity assay using a COX Fluorescent Inhibitor Screening Assay Kit (Cayman Chemicals, #700100). The assay was performed according to the manufacturer’s instructions in a black 96-well microplate. Human COX-2 was pre-incubated with NFA and control inhibitors for 30 min at RT following the addition of ADHP (10-acetyl-3,5-dihydroxyphenoxazine) and AA. The mixture was incubated again for 2 min at RT, and the fluorescence was measured at excitation/emission wavelengths of 535/587 nm.
FIGURE 4 Effects of NFA on COX-2 peroxidase activity. […] Peroxidase activity was measured by the appearance of TMPD. Data are presented as the percent of the control mean ± SD, n = 4. Statistical significance was calculated by one-way ANOVA with Bonferroni post-test. **p ≤ 0.0021, ***p ≤ 0.0002, ****p ≤ 0.0001 are considered significant.

NF-κB p50 = NF-κB p50 transcription factor ELISA in TNFα-stimulated HCT-116 cells; format: cell-based, human; conditions: 14 h preincubation, then 10 ng/ml TNF-α 4 h, HCT-116, ELISA; for inhibition of NF-κB p50 signaling: 10 µM
Experimental: (§1) The Nrf-2 and NF-κB transcription factors in the nuclear extracts were detected using an Nrf-2 Transcription Assay Kit (Cayman Chemical, # 600590) and NF-κB (p65 and p50) Transcription Factor Assay Kit (Cayman Chemical, # 10007889 and # 10006912). Prior to assay performance, the nuclear extracts were generated using a Nuclear Extraction Kit (Cayman Chemical, # 10009277). The assay was performed according to the manufacturer’s instructions. For all kits, the nuclear extracts were incubated overnight at 4°C. Development was carried out for 15–20 min or until the wells turned medium to dark blue. Five minutes after the stop solution had been added, the absorbance was read at 450 nm using a plate reader.
(§2) The proteasome inhibitor MG132 ([Lee and Goldberg, 1998]) was used as a positive control, as proteasomal inhibition leads to stabilization of I-κB and thus inhibits the activation of the NF-κB signaling pathway. We used a MG132 incubation period of 4 h as longer incubations have been described to activate NF-κB signaling ([Lee et al., 2013]).
(§3) FIGURE 1 Effects of NFA on the NF-κB p65 and p50 signaling pathway in colorectal cancer cells. […] Incubation for 4 h with the proteasome inhibitor MG132 (1 µM) served as the positive control. […] Values are normalized to protein concentration and unstimulated vehicle control. Data are represented as mean ± SD of (A) n = 3 (DMSO, 16.9.9, 9NOA control of right panel, 18.4.4, 18.6.7, and 18.9.10), n = 4 (all other derivatives) and (B) n = 5. Statistical significance was calculated by one-way analysis of variance (ANOVA) with Bonferroni post-test. *p ≤ 0.03, **p ≤ 0.0021, ***p ≤ 0.0002, ****p ≤ 0.0001 were considered significant versus TNF-α treatment.

NF-κB p65 = NF-κB p65 transcription factor ELISA in TNFα-stimulated HCT-116 cells; format: cell-based; conditions: Homo sapiens; 10 µM, 14 h preincubation, then 10 ng/ml TNF-α 4 h, HCT-116, ELISA; read-out: inhibition of NF-κB p65 signaling
Experimental: as §1, §2, §3

Compound | inhibition of sEH activity in HepG2 cells (sEH) | inhibition at 10 µM (COX-2) [%] | inhibition of NF-κB p50 signaling (NF-κB p50) | inhibition at 10 µM (NF-κB p65) [%] | further results
CCCCCCCC=C(CCCCCCCCC(=O)O)[N+](=O)[O-] [18.10.10, 10-nitro-octadec-10-enoic acid] | most efficient enzyme inhibition | > 90 |  |  | 
CCCCCCCC/C=C\CCCCCCCC(=O)O [OA, oleic acid, reference compound] | strong suppressive effect |  |  |  | inhibition at 10 µM (sEH; HepG2, 24 h): > 50%; inhibition of recombinant COX-2 peroxidase activity (COX-2; 10 µM): only weakly affected
CCCCCCCCCCC=C(CCCCCC(=O)O)[N+](=O)[O-] [18.7.7, 7-nitro-octadec-7-enoic acid] |  |  | most effective p50 inhibitors | ~90 | 
CCCCCCCCC=C(CCCCCCCC(=O)O)[N+](=O)[O-] [18.9.9, 9-nitro-octadec-9-enoic acid] |  | > 65 | most effective p50 inhibitors | 50 | inhibition at 10 µM (NF-κB p50; Homo sapiens, read-out: inhibition of NF-κB p50 signaling): ~60%
CCCCCCC=C(CCCCCCCCCC(=O)O)[N+](=O)[O-] [18.11.11, 11-nitro-octadec-11-enoic acid] | most efficient enzyme inhibition |  |  |  | 
CCCCCCCCC(=CCCCCCCCC(=O)O)[N+](=O)[O-] [18.9.10, 10-nitro-octadec-9-enoic acid] | most efficient enzyme inhibition |  |  |  | 
CCCCCCCCCC(=CCCCCCCC(=O)O)[N+](=O)[O-] [18.8.9, 9-nitro-octadec-8-enoic acid] |  |  | most effective p50 inhibitors | 50 | 
CCCCCCCCCCC=C(CCCCCCCC(=O)O)[N+](=O)[O-] [20.9.9, 9-nitro-eicos-9-enoic acid] |  | > 85 |  |  | 
CCCCCCCCCC=C(CCCCCCC(=O)O)[N+](=O)[O-] [18.8.8, 8-nitro-octadec-8-enoic acid] |  |  | most effective p50 inhibitors | 50 | 

Reference: PMC8637440, “Structural Modifications Yield Novel Insights Into the Intriguing Pharmacodynamic Potential of Anti-inflammatory Nitro-Fatty Acids” (Frontiers in Pharmacology, 2021)
